Laboratory results published in US20220371986A1, “METHOD TO GENERATE BIOCHEMICALLY REACTIVE AMINO ACIDS” (The Regents of the University of California, priority 2019, published 2022).

Key:
Format in all cases: cell-based
[1] = system: E. coli; test: E. coli growth in presence of FSY; details: 1 mM FSY in growth media
[2] = system: HeLa cells; test: Toxicity and cell morphology of FSY in HeLa cells
[3] = system: 293T cells; test: Toxicity of FSY to 293T cells
[4] = system: HeLa-EGFP-182TAG reporter cells; test: FACS analysis of Uaa incorporation into HeLa-EGFP-182TAG reporter cells; details: flow cytometry; positive control AzF with plasmid pIre-Azi3
Procedure: FSY incorporation into proteins in mammalian cells was tested. HeLa-EGFP-182TAG reporter cells were transfected with plasmid pMP-FSYRS-3×tRNA, which expresses FSYRS and tRNA^Pyl genes. Wang et al, Nat. Neurosci., 10:1063-1072 (2007). Suppression of the 182TAG codon would produce full-length EGFP rendering cells fluorescent. After transfection, cells were incubated with FSY of various concentrations at 37° C. for 24 or 48 h followed by flow cytometry. Strong EGFP fluorescence was measured from cells only when FSY was added. The fluorescence intensity increased with FSY concentration and incubation time. As a positive control, p-azido-L-phenylalanine (AzF) was incorporated into reporter cells in parallel using plasmid pIre-Azi3, which is the most efficient Uaa incorporation system in mammalian cells in our hands. […] No fluorescence signal was detected when FSY was not added.
FACS analysis of Uaa incorporation into HeLa-GFP-182TAG reporter cells: One day before transfection, 4.5×10^4 HeLa-EGFP-182TAG reporter cells (Wang et al, Nat. Neurosci., 10:1063-1072 (2007)) were seeded in a Greiner bio-one 24 well-cell culture dish containing 500 μL of DMEM media with 10% FBS, and incubated at 37° C. in a CO2 incubator. […] The cells were resuspended in 300 μL of FACS buffer (1×PBS, 2% FBS, 1 mM EDTA, 0.1% sodium azide, 0.28 μM DAPI) and analyzed by BD LSRFortessa™ cell analyzer.

Structure (SMILES): N[C@@H](Cc1ccc(OS(=O)(=O)F)cc1)C(=O)O [FSY, fluorosulfate-L-tyrosine]
- cytotoxicity (E. coli growth) [1]: no obvious cytotoxicity
- toxicity to HeLa cells ([2]; FSY incubation 24 or 48 h): no obvious toxicity
- cell morphology (fluorescence confocal microscopy) ([2]; HeLa-EGFP-182TAG reporter cells in the presence of FSY): cell morphology remained normal
- toxicity to 293T cells [3]: no obvious toxicity
- Uaa incorporation (EGFP fluorescence) relative to the AzF level [4]: 76%
